# According to publication PMC11111408, “Concurrent inhibition of oncogenic and wild-type RAS-GTP for cancer therapy” (Nature, 2024):
# Several values for one entry are separate records, joined by “and”; a condition that tells them apart may be missing. Equal values may be shown once. Read-outs that look alike come from different tables or passages of the source.
# What was measured:
# [1] = target: T1, GDP-bound KRAS(G12C) (Homo sapiens, UniProt P01116, G12C); assay: SPR binding of RMC-7977–CYPA binary complex to GDP-bound KRAS; conditions: in vitro
# T1 construct: His6-TEV (N); made in house; host or cells: E. coli BL21(DE3)
# [2] = target: KRAS^G12R (Homo sapiens, UniProt P01116+P62937, G12R); assay: Biochemical RAS–RAF (BRAF RBD) disruption, TR-FRET; parameters: made in house; host or cells: BL21(DE3) Escherichia coli; conditions: (95% CI)
# From the text: (§1) Time-resolved fluorescence resonance energy transfer (TR-FRET) was used as previously described to assess disruption of the interactions between wild-type RAS or the mutant oncogenic RAS proteins and the RAS-binding domain of BRAF, and to assess the induction of interactions between the RAS proteins and CYPA[12].
# [3] = target: KRAS WT (Homo sapiens, UniProt P01116+P62937); assay: Biochemical RAS–RAF (BRAF RBD) disruption, TR-FRET; parameters: made in house; host or cells: BL21(DE3) Escherichia coli
# From the text: as §1
# [4] = target: KRAS^G12D (Homo sapiens, UniProt P01116+P62937, G12D); assay: Biochemical RAS–RAF (BRAF RBD) disruption, TR-FRET; parameters: made in house; host or cells: BL21(DE3) Escherichia coli; conditions: (95% CI)
# From the text: as §1
# [5] = system: KRAS^G12C with secondary switch II pocket mutations; assay: Cellular nano-BRET KRAS:CRAF disruption, KRAS^G12C with secondary SWII mutations; assay type: cell-based, human; conditions: KRAS^G12C with secondary mutation, 4 h
# [6] = system: AsPC-1 and NCI-H441 cells; assay: pERK (MSD) and proliferation (CTG) in AsPC-1 and NCI-H441 cells, CYPA inhibitor co-treatment or PPIA KO; assay type: cell-based, human; conditions: for Proliferation, RMC-7977 with or without CYPA inhibitor (panel title not shown): ASPC1, RMC-7977 alone;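 on Proliferation inhibition with CYPA inhibitor competition: luminescence as % of CYPA inhibitor-only control with 3 mM sanglifehrin A competitor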
structure (smiles),measurement,setting,value
CCn1c(-c2cc(N3CCN(C4CC4)CC3)cnc2[C@H](C)OC)c2c3cc(ccc31)-c1csc(n1)C[C@H](NC(=O)[C@H]1[C@@H]3COC[C@@H]31)C(=O)N1CCC[C@H](N1)C(=O)OCC(C)(C)C2 [RMC-7977],binding of RMC-7977–CYPA binary complex to GDP-bound KRAS(G12C),[1],No binding was observed
same,EC50,[2],123 nM
same,EC50,[3],77 nM
same,EC50,[4],176 nM
same,"effect of switch II pocket binding mutations (R68, Y96, H95) on potency",[5],little or no effect
same,Proliferation inhibition with CYPA inhibitor competition,"[6]; ASPC1, RMC-7977 0.0152 nM",90.9654
same,pERK signal remaining (% of control) with CYPA inhibitor competition,"[6]; ASPC1, RMC-7977 0.0152 nM",120.616 and 135.308 and 125.91 and 115.107
same,Proliferation inhibition with CYPA inhibitor competition,"[6]; ASPC1, RMC-7977 0.0457 nM",85.8573
same,pERK signal remaining (% of control) with CYPA inhibitor competition,"[6]; ASPC1, RMC-7977 0.0457 nM",139.301 and 149.714 and 121.136 and 102.253
same,Proliferation inhibition with CYPA inhibitor competition,"[6]; ASPC1, RMC-7977 0.41 nM",72.6185 and 81.3976
same,pERK signal remaining (% of control) with CYPA inhibitor competition,"[6]; ASPC1, RMC-7977 0.41 nM",110.343 and 126.372 and 94.9104 and 97.1292
same,Proliferation inhibition with CYPA inhibitor competition,"[6]; ASPC1, RMC-7977 3.70 nM",35.3653 and 35.6028
same,Proliferation inhibition with CYPA inhibitor competition,"[6]; ASPC1, RMC-7977 11.11 nM",15.7797 and 21.3117
same,Proliferation inhibition with CYPA inhibitor competition,"[6]; ASPC1, RMC-7977 33.33 nM",8.746 and 8.58
same,Proliferation inhibition with CYPA inhibitor competition,"[6]; ASPC1, RMC-7977 100.00 nM",4.002 and 7.934
same,"Proliferation, RMC-7977 with or without CYPA inhibitor (panel title not shown)","[6]; 0.0152 nM, 15.2 pM",91.3484
same,"Proliferation, RMC-7977 with or without CYPA inhibitor (panel title not shown)","[6]; 0.0457 nM, 45.7 pM",92.4729
same,"Proliferation, RMC-7977 with or without CYPA inhibitor (panel title not shown)","[6]; 0.41 nM, 0.00041 µM",80.9316
same,"Proliferation, RMC-7977 with or without CYPA inhibitor (panel title not shown)","[6]; 3.70 nM, 0.0037 µM",50.3479
same,"Proliferation, RMC-7977 with or without CYPA inhibitor (panel title not shown)","[6]; 11.11 nM, 0.01111 µM",24.3804
same,"Proliferation, RMC-7977 with or without CYPA inhibitor (panel title not shown)","[6]; 33.33 nM, 0.03333 µM",12.3077
same,"Proliferation, RMC-7977 with or without CYPA inhibitor (panel title not shown)","[6]; 100.00 nM, 0.1 µM",7.228
same,"Proliferation, RMC-7977 with or without CYPA inhibitor (panel title not shown)","[6]; 300.00 nM, 0.3 µM",13.3948
same,"Proliferation, RMC-7977 with or without CYPA inhibitor (panel title not shown)","[6]; […], 5.08 pM",94.1273
same,activity at 0.0037 µM,"[6]; Homo sapiens, ASPC1, read-out: Proliferation inhibition in PPIA KO cells treated with RMC-7977, AsPC-1, 3.70 nM",33%
same,activity at 0.01111 µM,"[6]; Homo sapiens, ASPC1, read-out: Proliferation inhibition in PPIA KO cells treated with RMC-7977, AsPC-1, 11.11 nM",17.6%
same,activity at 0.03333 µM,"[6]; Homo sapiens, ASPC1, read-out: Proliferation inhibition in PPIA KO cells treated with RMC-7977, AsPC-1, 33.33 nM",8.78%
same,activity at 15.2 pM,"[6]; Homo sapiens, ASPC1, read-out: Proliferation, RMC-7977 with or without CYPA inhibitor (panel title not shown), ASPC1, RMC-7977 alone, 0.0152 nM",102%
same,activity at 45.7 pM,"[6]; Homo sapiens, ASPC1, read-out: Proliferation, RMC-7977 with or without CYPA inhibitor (panel title not shown), ASPC1, RMC-7977 alone, 0.0457 nM",92.6%
same,activity at 0.00041 µM,"[6]; Homo sapiens, ASPC1, read-out: Proliferation, RMC-7977 with or without CYPA inhibitor (panel title not shown), ASPC1, RMC-7977 alone, 0.41 nM",84.8%
same,activity at 0.0037 µM,"[6]; Homo sapiens, ASPC1, read-out: Proliferation, RMC-7977 with or without CYPA inhibitor (panel title not shown), ASPC1, RMC-7977 alone, 3.70 nM",47.4%
same,activity at 0.01111 µM,"[6]; Homo sapiens, ASPC1, read-out: Proliferation, RMC-7977 with or without CYPA inhibitor (panel title not shown), ASPC1, RMC-7977 alone, 11.11 nM",29.5%
same,activity at 0.03333 µM,"[6]; Homo sapiens, ASPC1, read-out: Proliferation, RMC-7977 with or without CYPA inhibitor (panel title not shown), ASPC1, RMC-7977 alone, 33.33 nM",12.8%
same,activity at 0.1 µM,"[6]; Homo sapiens, ASPC1, read-out: Proliferation, RMC-7977 with or without CYPA inhibitor (panel title not shown), ASPC1, RMC-7977 alone, 100.00 nM",7.14%
same,activity at 0.3 µM,"[6]; Homo sapiens, ASPC1, read-out: Proliferation, RMC-7977 with or without CYPA inhibitor (panel title not shown), ASPC1, RMC-7977 alone, 300.00 nM",14.9%
same,activity at 5.08 pM,"[6]; Homo sapiens, ASPC1, read-out: Proliferation, RMC-7977 with or without CYPA inhibitor (panel title not shown), ASPC1, RMC-7977 alone, […]",101%
same,activity at 0.00041 µM,"[6]; Homo sapiens, ASPC1, read-out: pERK inhibition in PPIA KO cells treated with RMC-7977, AsPC-1, 0.41 nM",85.8%
same,activity at 5.08 pM,"[6]; Homo sapiens, ASPC1, read-out: pERK inhibition in PPIA KO cells treated with RMC-7977, AsPC-1, […]",109%
